Some test systems named below: MCF7 breast; T-47D breast; MDA-MB-231 breast; NCI/ADR-RES ovarian.
Holding throughout (assay): DTP human tumour cell line panel, 48 h

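Cultured in 96-well plates, cells were exposed to test compound for 48 hours across five concentrations. GI50: concentration for 50% inhibition of growth. TGI denotes the concentration required for complete inhibition of growth.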

A word on the TGI: it is the concentration giving total growth inhibition. Low values mean greater sensitivity of the cells, high ones lower sensitivity of the cells. For the compound `c1ccc(C2=NNC3c4ccccc4-c4ccccc4N3C2)cc1` (stereo not drawn), the concentration for total growth inhibition (TGI) is over 100 µM with MCF7 breast, 92.4 µM in the assay on T-47D breast, over 100 µM in the assay with MDA-MB-231 breast and over 100 µM in the assay with NCI/ADR-RES ovarian.

As a reminder, the GI50 is the concentration at which growth is held to half of that of the control. Take `O=C(Nc1ccc(Cl)cc1)c1cc(-c2ccc(F)cc2)c2sc(=O)[nH]c2n1`: the GI50 with MCF7 breast was 1.31 µM; with T-47D breast it was 0.739 µM; with MDA-MB-231 breast, 1.77 µM; with NCI/ADR-RES ovarian, 2.32 µM. Besides, the TGI with MCF7 breast came to 11.3 µM; in the assay with T-47D breast it was 5.25 µM; with MDA-MB-231 breast, 4.78 µM; with NCI/ADR-RES ovarian, 10.9 µM.

With `CCN(CC)c1sc(N(CC)CC)c2c1SSSSS2`, the GI50 in the assay with MCF7 breast was 1.08 µM; in the assay with T-47D breast, 3.17 µM; in the assay with MDA-MB-231 breast, 0.894 µM; in the assay with NCI/ADR-RES ovarian, 0.89 µM. The concentration for total growth inhibition (TGI) in the assay on T-47D breast was over 100 µM; in the assay with MDA-MB-231 breast, 2.41 µM; with NCI/ADR-RES ovarian it was 2.53 µM.

`Cc1cc(SCC(=O)c2ccccc2)nc2ccccc12`: the total growth inhibition concentration (TGI) in the assay on MCF7 breast, in the assay with T-47D breast, with MDA-MB-231 breast and in the assay with NCI/ADR-RES ovarian was over 100 µM each time.

`COc1ccc(C(=O)COc2cccc(/C=C3\COc4ccc5ccccc5c4C3=O)c2)cc1`: the GI50 in the assay with MCF7 breast was 2.48 µM; with T-47D breast it was 3.88 µM; with MDA-MB-231 breast, 6.97 µM; with NCI/ADR-RES ovarian it was 6.14 µM. Besides, the TGI with MCF7 breast, in the assay on T-47D breast, in the assay with MDA-MB-231 breast and in the assay on NCI/ADR-RES ovarian was over 100 µM in each case.

As for `COc1cc(NC(=O)c2cc(O)c(CC=C(C)C)c(O)c2)cc2c1O[C@]1(C)CC[C@@H](O)C(C)(C)[C@H]1C2`, the GI50 was 2.1 µM with MCF7 breast, 2.44 µM in the assay with T-47D breast, 3.56 µM in the assay with MDA-MB-231 breast and 37 µM in the assay with NCI/ADR-RES ovarian. Besides, the TGI in the assay with MCF7 breast is 15.4 µM; in the assay on T-47D breast, 22.6 µM; with MDA-MB-231 breast it was 19.8 µM; in the assay with NCI/ADR-RES ovarian it was over 100 µM.

Regarding `O=C1NC(=O)c2ccc([N+](=O)[O-])c3cccc1c23`, the TGI is 27.9 µM in the assay on MCF7 breast, 44 µM in the assay with T-47D breast and 34.5 µM in the assay with MDA-MB-231 breast.

For `O=C(CCl)Nc1ccc(Cl)cc1`, the GI50 is 1.78 µM in the assay with MCF7 breast, 3.8 µM with T-47D breast, 5.24 µM with MDA-MB-231 breast and 2.8 µM in the assay with NCI/ADR-RES ovarian. The TGI amounted to 4.54 µM with MCF7 breast, 15.6 µM with T-47D breast, 25.9 µM in the assay with MDA-MB-231 breast and 8.96 µM with NCI/ADR-RES ovarian.

Regarding `COC(=O)Nc1nc2ccc(Oc3ccc(NC(=O)Nc4ccccc4)cc3)cc2[nH]1`, the GI50 in the assay with MCF7 breast was 0.0932 µM; in the assay with T-47D breast, 0.131 µM; with MDA-MB-231 breast it was 0.32 µM; in the assay with NCI/ADR-RES ovarian it was 0.391 µM. Further, the results for the TGI with T-47D breast, in the assay on MDA-MB-231 breast and in the assay on NCI/ADR-RES ovarian were 21.7 µM, 10.3 µM and over 25 µM, respectively.

For `CC/C=C\C[C@@H]1C/C=C2/C(=O)C=C[C@H]2C/C=C\CCCC(=O)O1`, the GI50 is 0.356 µM with MCF7 breast, 1.6 µM with T-47D breast, 1.56 µM with MDA-MB-231 breast and 0.349 µM in the assay with NCI/ADR-RES ovarian. Moreover, the TGI with MCF7 breast is 2.12 µM; with T-47D breast, 6.28 µM; with MDA-MB-231 breast it was 6.59 µM; with NCI/ADR-RES ovarian it was 18.7 µM.

As to `CCN(CC)CCCC(C)Nc1c(C)cnc2cc(Cl)c(C)cc12` (stereo not drawn), the GI50 in the assay with MCF7 breast was 16.2 µM; in the assay on T-47D breast it was 22.9 µM; in the assay on MDA-MB-231 breast it was 2.71 µM; in the assay with NCI/ADR-RES ovarian, 3.43 µM. Also, the total growth inhibition concentration (TGI) was 35.3 µM with MCF7 breast, over 61.7 µM in the assay on T-47D breast, 10.4 µM in the assay with MDA-MB-231 breast and 10.7 µM with NCI/ADR-RES ovarian.

Turning to `O=C(N/N=C/c1cccc(O)c1O)c1ccccc1`, the GI50 is 0.357 µM in the assay on MCF7 breast, 2.65 µM in the assay on T-47D breast, 0.495 µM in the assay on MDA-MB-231 breast and 0.648 µM in the assay on NCI/ADR-RES ovarian. For the same compound, the TGI with MCF7 breast, in the assay with T-47D breast, with MDA-MB-231 breast and with NCI/ADR-RES ovarian was over 100 µM each time.

On to `NCCCC[C@@H]1NC(=O)[C@H]2CCCN2C(=O)[C@H](Cc2ccccc2)NC(=O)[C@H](Cc2ccccc2)CNC1=O`, for which the GI50 in the assay with MCF7 breast, in the assay on T-47D breast, with MDA-MB-231 breast and with NCI/ADR-RES ovarian was over 100 µM in each case. Also, the total growth inhibition concentration (TGI) in the assay on MCF7 breast, with T-47D breast, in the assay on MDA-MB-231 breast and with NCI/ADR-RES ovarian was over 100 µM throughout.

Take `CC12CCCC(O)C1CCC1=CC3(CCC12)SCCS3` (stereo not drawn): the concentration for total growth inhibition (TGI) with MCF7 breast, in the assay with T-47D breast, with MDA-MB-231 breast and in the assay on NCI/ADR-RES ovarian was over 10 µM each time.

For `CC1CN1CC(O)C(O)CN1CC1C` (stereo not drawn), the GI50 with MCF7 breast is 0.427 µM; with T-47D breast, 2.87 µM; in the assay with MDA-MB-231 breast, 13.9 µM; in the assay with NCI/ADR-RES ovarian, 1.24 µM. The TGI in the assay with MCF7 breast is 36.6 µM; in the assay with T-47D breast, over 71.4 µM; in the assay with MDA-MB-231 breast it was 45.3 µM; with NCI/ADR-RES ovarian, over 87.1 µM.

On to `CCOC(=O)c1cc(/C(=N\O)c2cc(OC)c(OC)c(OC)c2)n2cc(C)cc(C)c12`, for which the GI50 was 1.93 µM in the assay with MCF7 breast, 2.34 µM in the assay on MDA-MB-231 breast and 2.19 µM with NCI/ADR-RES ovarian. Moreover, the concentration for total growth inhibition (TGI) is over 100 µM with MCF7 breast, 5.7 µM with MDA-MB-231 breast and 7.92 µM with NCI/ADR-RES ovarian.

Turning to `CN(C)c1ccc(N)cc1`, the GI50 is 2.83 µM in the assay on MCF7 breast, 3.25 µM in the assay with T-47D breast, 3.99 µM with MDA-MB-231 breast and 12.6 µM with NCI/ADR-RES ovarian. In addition, the TGI in the assay with MCF7 breast was 9.12 µM; in the assay with T-47D breast, 9.7 µM; in the assay on MDA-MB-231 breast it was 55.2 µM; in the assay with NCI/ADR-RES ovarian it was 48 µM.

On to `COc1cc(OC)c(/C=C/C(=O)c2c(OC)cccc2OC)c(OC)c1`, for which the 50% growth inhibitory concentration (GI50) was 0.392 µM with MCF7 breast, 0.383 µM in the assay with T-47D breast, 1.07 µM in the assay on MDA-MB-231 breast and 0.387 µM with NCI/ADR-RES ovarian. Further, the concentration for total growth inhibition (TGI) was over 100 µM in the assay on MCF7 breast, over 100 µM with T-47D breast, over 100 µM in the assay with MDA-MB-231 breast and over 25.8 µM in the assay on NCI/ADR-RES ovarian.

For the origin of these results see PubChem BioAssay (NCI).
